These results are taken from ChEMBL document CHEMBL3992562, “Multifunctional thioxanthone derivatives with acetylcholinesterase, monoamine oxidases and β-amyloid aggregation inhibitory activities as potential agents against Alzheimer's disease” (Bioorg Med Chem, 2017).

Activity calls are given as the source filed them. The rule behind the calls is not given here.

Series [1] in a line: Inhibition of rat serum BuChE using S-butylthiocholine iodide as substrate measured after 15 mins by Ellman's method.
Series [2] addresses Amyloid-beta precursor protein (Homo sapiens) (UniProt P05067). The series is described as follows: Inhibition of self-induced amyloid beta (1 to 42) (unknown origin) aggregation at 25 uM measured after 24 hrs by ThT fluorescence assay relative to control.
Another series is filed under the species Homo sapiens. The series is described as follows: Selectivity index, ratio of IC50 for recombinant human MAO-A expressed in baculovirus infected BTI insect cells to IC50 for recombinant human MAO-B expressed in baculovirus infected BTI insect cells.
Series [3] can be described thus: Metal chelating activity assessed as Fe2+-compound complex formation at 37.5 uM after 30 mins by UV-visible spectrometry. It counts as functional.
Series [4] in a line: Metal chelating activity assessed as mole fraction of compound required to show 1:1.5 stoichiometry for Cu2+-compound complex at 37.5 uM after 30 mins by UV-visible spectrometry. It counts as functional.
Series [5] in a line: Permeability of the compound at 100 ug/ml after 18 hrs by PAMPA. The series is classed as physicochemical. Conditions: read-out: permeability. (The PAMPA barrier holds no transporters, so it reflects passive diffusion.)
A short description of series [6]: Metal chelating activity assessed as Cu2+-compound complex formation at 37.5 uM after 30 mins by UV-visible spectrometry. It counts as functional.
Series [7] is described as follows: Inhibition of cupric ion-mediated amyloid beta (1 to 42) aggregation at 25 uM measured after 24 hrs by ThT fluorescence assay relative to control.
Series [8] concerns BuChE (butyrylcholinesterase). Kind of series: Inhibition of rat serum BuChE at 50 uM using S-butylthiocholine iodide as substrate measured after 15 mins by Ellman's method relative to control. To be noted: probe S-butylthiocholine iodide.
Series [9] in a line: Cytotoxicity against human SH-SY5Y cells assessed as cell viability at 10 uM after 24 hrs by MTT assay relative to control. Conditions: read-out: Activity. The series is classed as cell-based. A general note: Formazan colour is commonly taken as a measure of viable cells.
Series [10] in a line: Metal chelating activity assessed as Zn2+-compound complex formation at 37.5 uM after 30 mins by UV-visible spectrometry. The series is classed as functional.
Series [11] is described as follows: Metal chelating activity assessed as Al3+-compound complex formation at 37.5 uM after 30 mins by UV-visible spectrometry. It counts as functional.
Series [12] in a line: Cytotoxicity against human SH-SY5Y cells assessed as cell viability at 1 uM after 24 hrs by MTT assay relative to control. It counts as cell-based. Conditions: read-out: Activity.
Series [13] in a line: Antioxidant activity assessed as trolox equivalent of AAPH-induced radical scavenging activity at 5 uM incubated for 15 mins prior to APPH challenge measured every minute for 90 mins by ORAC-FL assay. The series is classed as functional.
Series [14] addresses T1, Amine oxidase [flavin-containing] A (Homo sapiens, UniProt P21397).
T1 sequence (P21397 whole entry): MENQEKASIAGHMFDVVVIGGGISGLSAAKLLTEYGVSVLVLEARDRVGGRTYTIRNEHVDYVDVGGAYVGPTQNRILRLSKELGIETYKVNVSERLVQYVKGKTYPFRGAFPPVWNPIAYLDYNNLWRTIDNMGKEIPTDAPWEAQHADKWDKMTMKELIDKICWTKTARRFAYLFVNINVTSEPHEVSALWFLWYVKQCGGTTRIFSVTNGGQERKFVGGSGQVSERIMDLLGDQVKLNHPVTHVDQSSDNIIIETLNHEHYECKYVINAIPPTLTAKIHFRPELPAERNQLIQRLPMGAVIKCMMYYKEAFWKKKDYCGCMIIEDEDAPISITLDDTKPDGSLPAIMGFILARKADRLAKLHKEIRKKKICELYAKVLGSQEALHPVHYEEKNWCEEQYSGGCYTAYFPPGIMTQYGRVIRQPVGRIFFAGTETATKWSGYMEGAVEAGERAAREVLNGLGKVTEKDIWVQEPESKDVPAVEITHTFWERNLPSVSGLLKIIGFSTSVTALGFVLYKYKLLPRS
Kind of series: Inhibition of recombinant human MAO-A expressed in baculovirus infected BTI insect cells using kynuramine as substrate after 30 mins by fluorimetric method.

A short description of series [15]: Cytotoxicity against human SH-SY5Y cells assessed as cell viability at 100 uM after 24 hrs by MTT assay relative to control. The series is classed as cell-based. Conditions: read-out: Activity.
The target of series [16] is Acetylcholinesterase (Electrophorus electricus) (UniProt O42275). Kind of series: Mixed-type inhibition of electric eel AChE using acetylthiocholine iodide as substrate preincubated for 15 mins followed by substrate addition by Lineweaver-Burk plot analysis.
Series [17] deals with T2, Amine oxidase [flavin-containing] B (Homo sapiens, UniProt P27338).
T2 sequence (P27338 whole entry): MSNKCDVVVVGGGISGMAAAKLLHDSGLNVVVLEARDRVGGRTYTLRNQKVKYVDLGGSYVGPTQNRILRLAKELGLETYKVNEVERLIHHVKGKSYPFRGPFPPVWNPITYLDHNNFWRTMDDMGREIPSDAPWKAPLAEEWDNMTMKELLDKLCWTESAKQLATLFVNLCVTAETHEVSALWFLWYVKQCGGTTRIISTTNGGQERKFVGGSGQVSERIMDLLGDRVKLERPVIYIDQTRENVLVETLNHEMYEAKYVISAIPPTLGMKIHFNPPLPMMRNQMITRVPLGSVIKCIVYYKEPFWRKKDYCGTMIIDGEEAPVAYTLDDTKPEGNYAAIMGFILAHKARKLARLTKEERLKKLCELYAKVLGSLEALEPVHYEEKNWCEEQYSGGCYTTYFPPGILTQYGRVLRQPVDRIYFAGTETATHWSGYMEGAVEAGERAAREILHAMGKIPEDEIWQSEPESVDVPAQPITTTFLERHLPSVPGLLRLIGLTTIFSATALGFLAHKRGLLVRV
The series is described as follows: Inhibition of recombinant human MAO-B expressed in baculovirus infected BTI insect cells using kynuramine as substrate after 30 mins by fluorimetric method. It counts as cell-based.

Another series addresses Acetylcholinesterase (Electrophorus electricus, UniProt O42275). The series is described as follows: Inhibition of electric eel AChE using acetylthiocholine iodide as substrate measured after 15 mins by Ellman's method. On the technique in general: In Ellman's method for cholinesterases, released thiocholine reacts with DTNB.

Chain of Amyloid-beta precursor protein (Homo sapiens) (P05067 whole entry): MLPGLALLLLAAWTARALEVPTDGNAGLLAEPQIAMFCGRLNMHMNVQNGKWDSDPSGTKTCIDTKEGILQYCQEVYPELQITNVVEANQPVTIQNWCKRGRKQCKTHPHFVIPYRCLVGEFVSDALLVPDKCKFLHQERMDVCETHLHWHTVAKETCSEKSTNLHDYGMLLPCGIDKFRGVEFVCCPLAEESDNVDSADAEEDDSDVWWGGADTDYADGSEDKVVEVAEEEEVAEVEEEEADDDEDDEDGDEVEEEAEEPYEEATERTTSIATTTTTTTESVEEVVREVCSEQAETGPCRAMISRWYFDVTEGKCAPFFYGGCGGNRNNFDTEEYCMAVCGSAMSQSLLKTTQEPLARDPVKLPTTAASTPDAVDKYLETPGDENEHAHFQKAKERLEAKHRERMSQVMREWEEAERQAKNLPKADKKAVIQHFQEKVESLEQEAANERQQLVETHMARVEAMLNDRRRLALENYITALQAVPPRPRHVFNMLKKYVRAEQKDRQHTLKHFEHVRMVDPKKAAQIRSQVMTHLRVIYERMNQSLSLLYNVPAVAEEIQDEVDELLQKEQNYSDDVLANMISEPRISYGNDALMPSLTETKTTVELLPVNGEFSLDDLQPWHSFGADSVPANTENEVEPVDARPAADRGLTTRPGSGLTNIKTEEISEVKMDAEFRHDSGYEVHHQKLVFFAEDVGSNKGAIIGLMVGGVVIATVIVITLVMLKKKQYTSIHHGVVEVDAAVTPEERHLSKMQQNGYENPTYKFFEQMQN
Chain of Acetylcholinesterase (Electrophorus electricus) (O42275 24-633 limits assumed): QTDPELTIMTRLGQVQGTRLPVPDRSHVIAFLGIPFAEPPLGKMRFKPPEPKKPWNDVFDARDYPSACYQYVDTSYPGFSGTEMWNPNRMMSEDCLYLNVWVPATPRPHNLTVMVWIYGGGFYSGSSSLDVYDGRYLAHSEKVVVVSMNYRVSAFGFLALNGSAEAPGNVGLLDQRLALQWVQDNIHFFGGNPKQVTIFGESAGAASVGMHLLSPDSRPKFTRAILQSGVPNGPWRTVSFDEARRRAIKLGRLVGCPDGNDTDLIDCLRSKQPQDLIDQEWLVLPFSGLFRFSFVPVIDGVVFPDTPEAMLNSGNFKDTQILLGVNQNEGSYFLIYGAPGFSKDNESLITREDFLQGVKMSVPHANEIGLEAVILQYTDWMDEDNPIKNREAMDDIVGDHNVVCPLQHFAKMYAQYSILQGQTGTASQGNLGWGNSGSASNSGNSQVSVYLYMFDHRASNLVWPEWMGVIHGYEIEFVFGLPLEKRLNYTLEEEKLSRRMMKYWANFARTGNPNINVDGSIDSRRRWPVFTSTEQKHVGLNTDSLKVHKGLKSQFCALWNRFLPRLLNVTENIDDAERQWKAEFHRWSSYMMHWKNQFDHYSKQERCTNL
Chain of Acetylcholinesterase (O42275 whole entry): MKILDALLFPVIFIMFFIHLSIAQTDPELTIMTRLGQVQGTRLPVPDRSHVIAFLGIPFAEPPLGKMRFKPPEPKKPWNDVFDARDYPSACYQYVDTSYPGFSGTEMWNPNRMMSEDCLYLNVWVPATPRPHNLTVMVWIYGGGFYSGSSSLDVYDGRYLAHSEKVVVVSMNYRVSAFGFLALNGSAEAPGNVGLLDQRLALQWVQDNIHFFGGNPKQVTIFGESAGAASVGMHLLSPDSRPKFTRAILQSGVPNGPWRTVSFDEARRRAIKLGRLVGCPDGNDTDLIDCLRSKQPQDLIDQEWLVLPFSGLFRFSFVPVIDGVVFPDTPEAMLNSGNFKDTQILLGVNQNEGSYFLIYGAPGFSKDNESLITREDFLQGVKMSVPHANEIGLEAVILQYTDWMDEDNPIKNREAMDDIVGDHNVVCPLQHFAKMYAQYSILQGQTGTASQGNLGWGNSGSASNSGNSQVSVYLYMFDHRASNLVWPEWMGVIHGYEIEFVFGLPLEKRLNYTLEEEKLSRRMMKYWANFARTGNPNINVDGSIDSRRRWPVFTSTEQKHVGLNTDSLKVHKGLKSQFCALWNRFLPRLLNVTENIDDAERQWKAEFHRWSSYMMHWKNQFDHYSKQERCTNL

For orientation: IC50 means the midpoint of a concentration-inhibition curve. With `COc1cc2c(cc1OC)C(=O)C(CC1CCN(Cc3ccccc3)CC1)C2` (centres undefined) [DONEPEZIL], in [1], the IC50 worked out at 21.4 µM.
For orientation: inhibition means the percentage by which the read-out fell short of the control. For `CCN(CCCCCCOc1cc(O)c2c(=O)c3ccccc3sc2c1)Cc1ccccc1N(C)C`, the inhibition in series [2] amounted to 74.8%; in series [7], 87.7%. Besides, the Ratio IC50 in the series filed under Homo sapiens was 1.12. The outcome in series [3] and in series [6] was Active. The Activity in series [4] worked out at 1.5 molar ratio; in [13] it was 0.74 µMequiv/µM. The Papp at 18 h, 100 ug/ml in [5] turned out to be 3.49 ×10⁻⁶ cm/s. For the same compound, in series [8], the inhibition at 0.25 h, 50 µM worked out at 28.7%. Besides, in series [9], the viability at 24 h, 10 µM worked out at 96.8%. The result in series [10] and in series [11] was inactive. The viability at 24 h, 1 µM in series [12] is 99.7%. Further, the IC50 in [14] turned out to be 1.01 µM; in [17] it was 0.9 µM; against Acetylcholinesterase, 0.59 µM. Moreover, the viability at 24 h, 100 µM in series [15] amounted to 68.1%. Further, in series [16], the inhibition entry is “Active”.
